Source: patent US6403606B1, “Thienopyridine derivatives and their use” (Takeda Chemical Industries Ltd., priority 1996, dated 2002)
Marks after values point to notes of the source that are not given here.

What was measured:
[1] = system: fetal rat bone culture (humeri, radii and ulnae); experiment: Bone resorption inhibitory activity, 45Ca release from fetal rat bone culture (Test Example 2B); format: cell-based, Sprague-Dawlay rat; conditions: 10 μM compound, 2 days culture; 45Ca release as % of control without compound (lower = more inhibition)
Experimental: (§1) The measurement of bone resorption inhibitory activity was carried out according to the method of Raisz [J. Clin. Invest., 44, 103-116 (1965)]. Namely, 50 μCi of ^45Ca (radioisotope of calcium in CaCl2 solution) was subcutaneously injected into a Sprague-Dawlay rat of 18th day of pregnancy. On the next day, the abdomen was opened and a fetal rat was taken out sterilely. The left and right humeri (radii and ulnae) were removed from the body under a dissection microscope and connective tissues and cartilages were removed as much as possible. Thus, bone culture samples were prepared. The bone was incubated in a medium (0.6 ml) of BCJb medium (Fitton-Jackson modification: GIBCO Laboratories, U.S.A.) containing 2 mg/ml of bovine serum albumin at 37° C. for 24 hours in an atmosphere of 5% of CO2 in air. The bones were cultured for an additional 2 days in the above medium containing a final concentration of 10 μM of the compound. The ratio (%) of ^45Ca released from the bone into the medium was calculated according to the following equation. [formula]
The bones from the same litter were cultured for 2 days the same manner without addition of the compound, and used as the control. The mean±standard deviation of the values for five bones of each group was calculated. The ratio (%) of this value to the control value was calculated. The results are shown in Table 4 (In the tables hereinafter, Ex. No. indicates Example No.).

Rat Adjuvant Arthritis = experiment: Activity on rat adjuvant arthritis (Test Example 1B); format: in vivo, Male Lewis rats; conditions: N=6; for Body weight gain rate (%): day 14; for Edema inhibitory rate (%): left hind paw volume day 14
Experimental: Male Lewis rats (7 weeks old, Clea Japan) were sensitized by intracutaneous injection of 0.05 ml of Freund's complete adjuvant (0.5% dead tubercle bacillus cell suspension in liquid paraffin) at the right hind paw. The test drug (6.25 mg/kg or 3.13 mg/kg), in a suspension in 0.5% methyl cellulose, was administered once daily for 14 days starting just before sensitization (day 0). At the days 0 and 14, the left hind paw volume and body weight of the animals were measured using a plethysmometer (manufactured by Ugo Basile Company, Italy) and an electronic balance (EB-3200D, manufactured by Shimadzu Corporation, Japan), respectively, and paw swelling suppression rate (%) and body weight gain rate (%), relative to non-sensitized rats, were determined.
The results, expressed in mean±S.E. for each group (N=6), were compared and statistically analyzed by Dunnet method. Level of significance was set below 5%.

[2] = system: fetal rat bone culture (humeri, radii and ulnae); experiment: Bone resorption inhibitory activity, 45Ca release from fetal rat bone culture (Test Example 2A); format: cell-based, Sprague-Dawlay rat; conditions: 10 μM compound, 2 days culture; 45Ca release as % of control without compound (lower = more inhibition)
Experimental: as §1
The bones from the same litter were cultured for 2 days the same manner without addition of the compound, and used as the control. The mean±standard deviation of the values for five bones of each group was calculated. The ratio (%) of this value to the control value was calculated. The results are shown in Table 2 (In the tables hereinafter, Ex. No. indicates Example No.).

[3] = 6.25 mg/kg once daily for 14 days
[4] = 3.13 mg/kg once daily for 14 days

**Q.** Which “Bone resorption inhibitory inhibitory activity (^45Ca release) (% based on the control value)” value [1] does the source give for “7-benzyl-3-chloro-4-(3,4-dimethoxyphenyl)-2-(2-oxo-1-piperidinylmethyl)-5,6,7,8-tetrahydrothieno[2,3-b:5,4-c′]dipyridine [Example 24B]” here?
**A.** The value was 44** % based on the control value.

**Q.** With “7-benzyl-3-chloro-4-(3,4-dimethoxyphenyl)-2-(2-oxo-1-pyrrolidinylmethyl)-5,6,7,8-tetrahydrothieno[2,3-b:5,4-c′]dipyridine [Example 28B]” as the molecule, how does the “Body weight gain rate (%)” value (Rat Adjuvant Arthritis; [3]) read?
**A.** The value was 19** %.

**Q.** And the “Edema inhibitory rate (%)” value (Rat Adjuvant Arthritis; [3])?
**A.** Its value is 78** %.

**Q.** And the “Bone resorption inhibitory inhibitory activity (^45Ca release) (% based on the control value)” value [1]?
**A.** Its value is 47** % based on the control value.

**Q.** Which “Body weight gain rate (%)” value (Rat Adjuvant Arthritis; [4]) does the source give for “7-benzyl-3-chloro-4-(4-hydroxy-3-methoxyphenyl)-2-(2-oxo-1-pyrrolidinylmethyl)-5,6,7,8-tetrahydrothieno[2,3-b:5,4-c′]dipyridine [Example 29B]” here?
**A.** Its value is 12%.

**Q.** What about the “Edema inhibitory rate (%)” value (Rat Adjuvant Arthritis; [4]) of the same molecule?
**A.** Its value is 69** %.

**Q.** Which results are given for CCOC(=O)c1c(CN(CC)CC)nc2sc3c(c2c1-c1ccc(OC)c(OC)c1)CCN(C(=O)Nc1ccccc1)C3 [Example 12A, ethyl 2-(N,N-diethylaminomethyl)-4-(3,4-dimethoxyphenyl)-7-phenylcarbamoyl-5,6,7,8-tetrahydrothieno[2,3-b:5,4-c′]dipyridine-3-carboxylate]?
**A.** melting point: 154 to 155 °C; Bone resorption inhibitory activity (^45Ca release) (% based on the control value) [2]: 77* % based on the control value

**Q.** Which “Bone resorption inhibitory inhibitory activity (^45Ca release) (% based on the control value)” value [1] does the source give for COc1ccc(-c2c(Cl)c(CN3CCCCCC3=O)nc3sc4c(c23)CCN(Cc2ccccc2)C4)cc1OC [Example 25B, 7-benzyl-3-chloro-4-(3,4-dimethoxyphenyl)-2-(2-oxohexamethyleneiminomethyl)-5,6,7,8-tetrahydrothieno[2,3-b:5,4-c′]dipyridine] here?
**A.** The value was 52** % based on the control value.

**Q.** And the melting point?
**A.** The melting point was 113 to 114 °C.

**Q.** Which results are given for CCOC(=O)c1c(CCCn2cncn2)nc2sc3c(c2c1-c1ccc(OC)c(OC)c1)CCN(C(=O)c1ccc(Cl)cc1)C3 [Example 27A, ethyl 7-(4-chlorobenzoyl)-4-(3,4-dimethoxyphenyl)-5,6,7,8-tetrahydro-2-[3-(1,2,4-triazol-1-yl]propyl]thieno[2,3-b:5,4-c′]dipyridine-3-carboxylate]?
**A.** melting point: 114 to 116 °C; Bone resorption inhibitory activity (^45Ca release) (% based on the control value) [2]: 74* % based on the control value

**Q.** For CCOC(=O)c1c(CCCCn2cncn2)nc2sc3c(c2c1-c1ccc(OC)c(OC)c1)CCN(C(=O)c1ccc(Cl)cc1)C3 [Example 28A, ethyl 7-(4-chlorobenzoyl)-4-(3,4-dimethoxyphenyl)-5,6,7,8-tetrahydro-2-[4-(1,2,4-triazol-1-yl]butyl]thieno[2,3-b:5,4-c′]dipyridine-3-carboxylate], which melting point is on record?
**A.** Its melting point is 165 to 166 °C.

**Q.** What about the “Bone resorption inhibitory activity (^45Ca release) (% based on the control value)” value [2] of the same molecule?
**A.** Its value is 67*** % based on the control value.

**Q.** Which results are given for CCOC(=O)c1c(CN(CC)CC)nc2sc3c(c2c1-c1ccc(CC)cc1)CCNC3 [Example 33A, ethyl 4-(4-ethylphenyl)-5,6,7,8-tetrahydro-2-(N,N-diethylaminomethyl)thieno[2,3-b:5,4-c′]dipyridine-3-carboxylate]?
**A.** melting point: 107 to 108 °C; Bone resorption inhibitory activity (^45Ca release) (% based on the control value) [2]: 72** % based on the control value
